{
  "source": "patent US8715704B2",
  "about": "“Lure” (London School of Hygiene & Tropical Medicine, priority 2008, dated 2014)",
  "key": {"[1]": {"test_system": "Dermatophagoides pteronyssinus", "assay": "Y-tube olfactometer behavioural bioassay", "format": "in vivo", "settings": "for global responses (males and females) to the arm containing neryl formate: x^2=11.025, P<0.01, n=40", "description": "(§1) A Y-tube olfactometer was used to observe the behavioural responses elicited by house dust mites, as described previously (Skelton et al., in press). For each experiment, a treatment and control stimulus was added (1 μl) to separate filter paper discs (1.5 cm diameter), allowed to dry for 1 min, and placed into each arm of the olfactometer. A power analysis was carried out at 80% power, 95% significance; to calculate appropriate sample sizes to see 40% difference in effect (70% to treatment) (STATA 8.2 software). […] Treatments comprised: (1) chromatography fractions derived from the D. farinae extract .v. hexane, (2) neryl formate (10 & 100 ng/μl) .v. hexane, (3) a female D. farinae extract .v. neryl formate, (4) a male D. farinae extract .v. neryl formate, and (5) a female D. pteronyssinus extract .v. neryl formate. Categorical data from the Y-tube olfactometer bioassays were tested with a Chi-squared test for goodness of fit, with a Yates correction factor (preference to a particular arm) (Fowler et al., 1998). Time data were log 10-transformed prior to parametric data analysis. A three-way ANOVA (Minitab 11 for Windows) was carried out to analyse if the log time to make a decision in the treatment arm (neryl formate) was affected by the concentration of neryl formate, gender and house dust mite species studied."}, "Dermatophagoides farinae [2]": {"test_system": "Dermatophagoides farinae", "assay": "Y-tube olfactometer behavioural bioassay", "format": "in vivo", "description": "as §1"}, "[3]": {"test_system": "Dermatophagoides pteronyssinus", "assay": "Semi-field carpet disc lure bioassay with sticky trap", "format": "in vivo", "settings": "10 ng/10 μl neryl formate in hexane on filter paper v. hexane; cut pile and loop pile carpet; 1-40 min", "description": "(§2) Initially, a bioassay was designed to test the efficacy of neryl formate in attracting populations of the American house dust mite, Dermatophagoides farinae, and the European house dust mite, D. pteronyssinus, from carpet sections. The bioassay involved the placement of D. farinae and D. pteronyssinus onto cut carpet discs (5 cm in diameter) which were placed underneath a glass Petri dish to maintain humidity. Two types of carpet (both obtained from Heuga Home Flooring BV) were tested: cut pile (Simply Soft Aquarius) and loop pile (Working Week Boucle Ink Pad). Aliquots of a 10 ng/10 μl neryl formate solution (in hexane) were used for the lure treatment, whilst hexane alone was used for the control. Both solutions were injected onto filter paper discs (2 cm diameter) and placed into the centre of the carpet discs. After an allocated time interval (1, 5, 10, 20 or 40 min), a sticky trap was placed onto the carpet to capture the mites, and subsequently placed under a microscope to record the amount and position of the mites, to ascertain if the mites had moved from their original position. Data were analysed using a generalized linear model assuming a binomial distribution with a logit link and dispersion parameter equal to 1.0 (see Table 1). The analysis of deviance for both responses was obtained using the MODEL procedure as implemented in GenStat 8.0 (Rothamsted Research)."}, "Dermatophagoides farinae [4]": {"test_system": "Dermatophagoides farinae", "assay": "Semi-field carpet disc lure bioassay with sticky trap", "format": "in vivo", "settings": "10 ng/10 μl neryl formate in hexane on filter paper v. hexane; cut pile and loop pile carpet; 1-40 min", "description": "as §2"}, "Lardoglyphus konoi": {"test_system": "Lardoglyphus konoi", "settings": "10 ng/μl; Kuwahara et al., 1991; cited from earlier work"}, "[5]": {"test_system": "Caloglyphus polyphyllae mites", "settings": "Shimizu et al., 2001; cited from earlier work"}, "Dermatophagoides farinae [6]": {"test_system": "Dermatophagoides farinae", "assay": "Acaricide lethal dosage bioassay", "format": "in vivo"}, "[7]": {"settings": "10 ng v. hexane, x^2=6.05, P<0.05, n=20"}},
  "note": "Counter-ions that a name gives are not always drawn.",
  "data": [
    {"molecule": "CC(C)=CCC/C(C)=C\\COC=O", "note": "[neryl formate, (Z)-3,7-dimethyl-2,6-octadienyl formate]", "values": [
      {"measurement": "response of females to neryl formate", "setting": "[1]; 10 ng v. hexane, x^2=4.05, P<0.05, n=20", "value": "significant response"},
      {"measurement": "response of males to neryl formate", "setting": "[1]; [7]", "value": "significant response"},
      {"measurement": "global responses (males and females) to the arm containing neryl formate", "setting": "[1]; 10 ng v. hexane", "value": "significant"},
      {"measurement": "response of females to neryl formate", "setting": "[1]; 100 ng v. hexane, x^2=8.45, P<0.01, n=20", "value": "significant response"},
      {"measurement": "global responses (males and females) to the arm containing neryl formate", "setting": "[1]; 100 ng v. hexane", "value": "significant"},
      {"measurement": "response to synthetic neryl formate or con-specific extract", "setting": "[1]; females, v. female D. pteronyssinus extract, x^2=0.06, P=0.80, n=16", "value": "not significantly different"},
      {"measurement": "response of females to neryl formate", "setting": "Dermatophagoides farinae [2]; [7]", "value": "significant response"},
      {"measurement": "global responses of males and females to the arm containing neryl formate", "setting": "Dermatophagoides farinae [2]; 10 ng v. hexane, x^2=9.025, P<0.01, n=40", "value": "significant"},
      {"measurement": "global responses of males and females to the arm containing neryl formate", "setting": "Dermatophagoides farinae [2]; 100 ng v. hexane, x^2=4.225, P<0.05, n=40", "value": "significant"},
      {"measurement": "response of males to neryl formate", "setting": "Dermatophagoides farinae [2]; 100 ng v. hexane, x^2=6.05, P<0.05, n=20", "value": "significant response"},
      {"measurement": "response to neryl formate or con-specific extract", "setting": "Dermatophagoides farinae [2]; females, v. female D. farinae extract, x^2=1.38, P=0.24, n=18", "value": "no significant difference"},
      {"measurement": "response to synthetic neryl formate or con-specific extract containing naturally produced neryl formate", "setting": "Dermatophagoides farinae [2]; males, v. male D. farinae extract, x^2=0.10, P=0.75, n=14", "value": "no significant difference"},
      {"measurement": "number of mites retrieved on sticky traps", "setting": "[3]", "value": "significantly increased"},
      {"measurement": "number of mites retrieved on sticky traps", "setting": "Dermatophagoides farinae [4]", "value": "significantly increased"}
    ]},
    {"molecule": "CCC[C@@H](C)C[C@@H](C)C[C@@H](C)C[C@@H](C)OC=O", "note": "[(1R,3R,5R,7R) lardolure, (1R,3R,5R,7R)-1,3,5,7-tetramethyldecyl formate]", "values": [
      {"measurement": "concentration at which mites significantly respond", "setting": "Lardoglyphus konoi", "value": 10, "unit": "ppm"}
    ]},
    {"molecule": "CC(C)=CC/C=C(/C=O)CC=O", "note": "[β-acaridial]", "values": [
      {"measurement": "amount at which mites significantly respond", "setting": "[5]", "value": 10, "unit": "ng"}
    ]},
    {"molecule": "C/C=C(\\C)C(=O)O[C@H]1C[C@@H](OC(C)=O)[C@@]2(C(=O)OC)CO[C@H]3[C@@H](O)[C@@](C)([C@]45O[C@@]4(C)[C@H]4C[C@@H]5O[C@@H]5OC=C[C@@]54O)[C@H]4[C@]1(CO[C@]4(O)C(=O)OC)[C@@H]32", "note": "[azadirachtin]", "values": [
      {"measurement": "mortality", "setting": "Dermatophagoides farinae [6]", "value": "little mortality"}
    ]}
  ]
}
